According to patent US6359009B1, “Substituted anilide insecticidal agents” (BASF Aktiengesellschaft, priority 1998, dated 2002):
Structures can show the parent of a compound that is named as a salt.

Experiments:
[1] = system: Diabrotica undecimrunctata howardi, 3rd instar southern corn rootworm; assay: Evaluation against 3rd instar southern corn rootworm, treated talc/soil jar test, mortality after 5 days; assay type: in vivo, Diabrotica undecimpunctata howardi; conditions: mortality rating 0-9 after 5 days in soil
Procedure: (§1) Test solutions are prepared by dissolving the test compound in a 35% acetone in water mixture to give a concentration of 10,000 ppm. Subsequent dilutions are made with water as needed.
Diabrotica undecimrunctata howardi, 3rd instar southern corn rootworm
(§2) One cc of fine talc is placed in a 30 mL wide-mouth screw-top glass jar. One mL of the appropriate acetone test solution is pipetted onto the talc so as to provide 1.25 mg, 0.25 mg or 0.025 mg of active ingredient per jar. The jars are set under a gentle air flow until the acetone is evaporated. The dried talc is loosened, 1 cc of millet seed is added to serve as food for the insects and 25 mL of moist soil is added to each jar. The jar is capped and the contents thoroughly mixed mechanically. Following this, ten 3rd instar rootworms are added to each jar and the jars are loosely capped to allow air exchange for the larvae. The treatments are held for 5 days when mortality counts are made. Missing larvae are presumed dead, since they decompose rapidly and can not be found.

[2] = system: Diabrotica virgifera virgifera Leconte, 3rd instar western corn rootworm; assay: Evaluation against 3rd instar western corn rootworm, treated talc/soil jar test, mortality after 5 days; assay type: in vivo; conditions: mortality rating 0-9 after 5 days in soil
Procedure: as §1
Diabrotica virgifera virgifera Leconte, 3rd instar western corn rootworm
as §2

SMILES | Southern Corn Rootworm (1 ppm) rating [1] | Southern Corn Rootworm (10 ppm) rating [1] | Southern Corn Rootworm (50 ppm) rating [1] | Western Corn Rootworm (1 ppm) rating [2] | Western Corn Rootworm (10 ppm) rating [2] | Western Corn Rootworm (50 ppm) rating [2]
CC(C)SC(C)(C)C(=O)Nc1ccc(C(F)(F)F)cc1 [Compound 5, α,α,α-Trifluoro-2-(isopropylthio)-2-methyl-p-propionotoluidide] | 0.0 | 0.0 | 9.0 | – | – | –
CC(C)C(=O)C1(C(=O)Nc2ccc(C(F)(F)F)cc2)CC1 [Compound 25, α,α,α-Trifluoro-1-isobutyrylcyclopropanecarboxy-p-toluidide] | – | – | – | 0.0 | 0.0 | 7.0
CCOCN(C(=O)C(C)(C)C(=O)C(C)C)c1ccc(C(F)(F)F)cc1 [Compound 15, N-(Ethoxymethyl)-α,α,α-trifluoro-2,2,4-trimethyl-3-oxo-p-valerotoluidide] | – | – | – | 8.0 | 9.0 | 9.0
CC(C)C(OC(=O)CCl)C(C)(C)C(=O)Nc1ccc(C(F)(F)F)cc1 (stereo not drawn) [Compound 20, 3-Hydroxy-α,α,α-trifluoro-2,2,4-trimethyl-p-valerotoluidide, chloroacetate (ester)] | – | – | – | 0.0 | 5.0 | 9.0
CC(C)C(OC1CCCC1)C(C)(C)C(=O)Nc1ccc(C(F)(F)F)cc1 (stereo not drawn) [Compound 26, 3-(Cyclopentyloxy)-α,α,α-trifluoro-2,2,4-trimethyl-p-valerotoluidide] | – | – | – | 0.0 | 0.0 | 8.0
C#CCOC(C(C)C)C(C)(C)C(=O)Nc1ccc(C(F)(F)F)cc1 (stereo not drawn) [Compound 19, α,α,α-Trifluoro-2,2,4-trimethyl-3-(2-propynyloxy)-p-valerotoluidide] | – | – | – | 0.0 | 9.0 | 9.0
CCOC(C)(C)C(=O)Nc1ccc(C(F)(F)F)cc1 [Compound 35, 2-Ethoxy-α,α,α-trifluoro-2-methyl-p-propionotoluidide] | – | – | – | 0.0 | 3.0 | 9.0
CC(C)S(=O)(=O)C(C)(C)C(=O)Nc1ccc(C(F)(F)F)cc1 [Compound 13, α,α,α-Trifluoro-2-(isopropylsulfonyl)-2-methyl-p-propionotoluidide] | 3.0 | 9.0 | 9.0 | – | – | –
CC(C)C(=O)C(C)(C)C(=O)N(C(=O)c1ccc(C(F)(F)F)cc1)c1ccc(C(F)(F)F)cc1 [Compound 6, α,α,α,α′,α′,α′-Hexafluoro-N-(2,2,4-trimethyl-3-oxovaleryl)-p-tolu-p-toluidide] | 2.0 | 9.0 | 9.0 | – | – | –
CC(C)C(O)C(C)(C)C(=O)Nc1ccc(Cl)cc1 (stereo not shown) [Compound 3, 4′-chloro-3-hydroxy-2,2,4-trimethylvaleranilide] | 0.0 | 4.0 | 8.0 | – | – | –
CC(C)CC(C)C(=O)Nc1ccc(C(F)(F)F)c(OC(F)F)c1 (stereo not drawn) [Compound 32, 3-(Difluoromethoxy)-α,α,α-trifluoro-2,4-dimethyl-p-valerotoiuidide] | – | – | – | 0.0 | 4.0 | 4.0
CC(C)C(=O)C(C)(C)C(=O)N(C)c1ccc(C(F)(F)F)cc1 [Compound 36, α,α,α-Trifluoro-N,2,2,4-tetramethyl-3-oxo-p-valerotoluidide] | – | – | – | 2.0 | 9.0 | 9.0
CC(C)(C)C(=O)C(C)(C)C(=O)Nc1ccc(C(F)(F)F)cc1 [Compound 21, α,α,α-Trifluoro-2,2,4,4-tetramethyl-3-oxo-p-valerotoluidide] | – | – | – | 0.0 | 9.0 | 9.0
C=CCOC(C(C)C)C(C)(C)C(=O)Nc1ccc(C(F)(F)F)cc1 (stereo not drawn) [Compound 22, 3-(Allyloxy)-α,α,α-trifluoro-2,2,4-trimethyl-p-valerotoluidide] | – | – | – | 0.0 | 9.0 | 9.0
CC(C)(C(=O)Nc1ccc(C(F)(F)F)cc1)C(=O)C(C)(C)c1ccccc1 [Compound 11, α,α,α-Trifluoro-2,2,4-trimethyl-3-oxo-4-phenyl-p-valerotoluidide] | – | – | 6.0 | – | – | –
COC(C(C)C)C(C)(C)C(=O)Nc1ccc(Cl)cc1 (stereo not shown) [Compound 28, 4′-Chloro-3-methoxy-2,2,4-trimethylvaleranilide] | – | – | – | 0.0 | 5.0 | 9.0

SMILES | Southern Corn Rootworm (1 ppm) rating [1] | Southern Corn Rootworm (10 ppm) rating [1] | Southern Corn Rootworm (50 ppm) rating [1] | Western Corn Rootworm (1 ppm) rating [2] | Western Corn Rootworm (10 ppm) rating [2] | Western Corn Rootworm (50 ppm) rating [2]
CCOC(C(C)C)C(C)(C)C(=O)Nc1ccc(C(F)(F)F)cc1 (stereo not drawn) [Compound 24, 3-Ethoxy-α,α,α-trifluoro-2,2,4-trimethyl-p-valerotoluidide] | – | – | – | 0.0 | 9.0 | 9.0
CC(C)(C)OC(C)(C)C(=O)Nc1ccc(C(F)(F)F)cc1 [Compound 34, 2-tert-Butoxy-α,α,α-trifluoro-2-methyl-p-propionotoluidide] | – | – | – | 2.0 | 9.0 | 9.0
CCOCOC(C(C)C)C(C)(C)C(=O)Nc1ccc(C(F)(F)F)cc1 (stereo not drawn) [Compound 17, 3-(Ethoxymethoxy)-α,α,α-trifluoro-2,2,4-trimethyl-p-valerotoluidide] | – | – | – | 1.0 | 9.0 | 9.0
CC(=O)OC(C(C)C)C(C)(C)C(=O)Nc1ccc(C(F)(F)F)cc1 (stereo not drawn) [Compound 9, α,α,α-Trifluoro-3-hydroxy-2,2,4-trimethyl-p-valerotoluidide, acetate (ester)] | 0.0 | 8.3 | 8.3 | – | – | –
CCCCCCOC(C(C)C)C(C)(C)C(=O)Nc1ccc(C(F)(F)F)cc1 (stereo not drawn) [Compound 27, α,α,α-Trifluoro-3-(hexyloxy)-2,2,4-trimethyl-p-valerotoluidide] | – | – | – | 0.0 | 0.0 | 9.0
CC(C)OC(C)(C)C(=O)Nc1ccc(C(F)(F)F)cc1 [Compound 30, α,α,α-Trifluoro-2-isopropoxy-2-methyl-p-propionotoluidide] | – | – | – | 0.0 | 9.0 | 9.0
CC(C)C(=O)C(C)(C)C(=O)Nc1ccc(Cl)cc1 [Compound 37, 4′-Chloro-2,2,4-trimethyl-3-oxovaleranilide] | 0.0 | 9.0 | 9.0 | – | – | –
CC(C)C(O)C(C)(C)C(=O)Nc1ccc(C(F)(F)F)cc1 (stereo not drawn) [Compound 4, α,α,α-Trifluoro-3-hydroxy-2,2,4-trimethyl-p-valerotoluidide] | 0.0 | 0.0 | 9.0 | – | – | –
CC(C)C(OS(C)(=O)=O)C(C)(C)C(=O)Nc1ccc(C(F)(F)F)cc1 (stereo not drawn) [Compound 18, α,α,α-Trifluoro-3-hydroxy-2,2,4-trimethyl-p-valerotoluidide, methanesulfonate (ester)] | – | – | – | 0.0 | 3.0 | 9.0
CC(C)C(=O)C(C)(C)C(=O)N(C)c1ccc(Cl)cc1 [Compound 2, 4′-Chloro-N,2,2,4-tetramethyl-3-oxo-valeranilide] | 0.0 | 0.0 | 3.5 | – | – | –
CC(C)OC(C(C)C)C(C)(C)C(=O)Nc1ccc(C(F)(F)F)cc1 (stereo not drawn) [Compound 23, α,α,α-Trifluoro-3-(isopropoxy)-2,2,4-trimethyl-p-valerotoluidide] | – | – | – | 0.0 | 9.0 | 9.0
CC(C)C(=O)C(C)C(=O)Nc1ccc(C(F)(F)F)cc1 (stereo not drawn) [Compound 29, α,α,α-Trifluoro-2,4-dimethyl-3-oxo-p-valerotoluidide] | – | – | – | 0.0 | 0.0 | 8.5
CC(C)C(=O)C(C)(Cl)C(=O)Nc1ccc(C(F)(F)F)cc1 (stereo not shown) [Compound 31] | – | – | – | 0.0 | 0.0 | 4.0
CC(C)C(OC=O)C(C)(C)C(=O)Nc1ccc(C(F)(F)F)cc1 (stereo not drawn) [Compound 33, α,α,α-Trifluoro-3-hydroxy-2,2,4-trimethyl-p-valerotoiuidide, formate (ester)] | – | – | – | 0.0 | 5.0 | 9.0
COC(C(C)C)C(C)(C)C(=O)Nc1ccc(C(F)(F)F)cc1 (stereo not drawn) [Compound 16, α,α,α-Trifluoro-3-methoxy-2,2,4-trimethyl-p-valerotoluidide] | – | – | – | 0.0 | 9.0 | 9.0
